Assay results: patent publication US20230073512A1, “MODULATORS OF CULLIN 3 ADAPTOR KBTBD4 AS ANTI-CANCER COMPOUNDS” (UNIVERSITE DE MONTREAL, priority 2019, published 2023)
pIC50: −log10 of the molar value.

Tested on: AML3
Test: Cell proliferation of cancerous cell lines
Type: cell-based
Conditions: AML3; read-out: Antineoplastic effect of tested compounds on cell proliferation of cancerous AML3 cells, IC50

pIC50, 5.70 to 6.00:
COC(=O)c1ccc2c3c(NCCCN4CCCCC4)ncnc3n(C)c2c1
COC(=O)c1ccc2c(c1)[nH]c1ncnc(NCCCN)c12
COC(=O)c1ccc2c(c1)[nH]c1ncnc(N[C@H]3CC[C@H](N)CC3)c12
COC(=O)c1ccc2c(c1)[nH]c1ccnc(NCCCN3CCCCC3)c12
COC(=O)c1ccc2c(c1)[nH]c1nc(Cc3ccccc3)nc(NCCCN3CCCCC3)c12
COC(=O)c1ccc2c(c1)[nH]c1nc(Cc3ccccc3C)nc(NCCCN3CCCCC3)c12
COC(=O)c1ccc2c(c1)[nH]c1nc(Cc3ccsc3)nc(NCCCN3CCCCC3)c12
CN(CCCN1CCCCC1)c1ncnc2[nH]c3cc(-c4nnn(C)n4)ccc3c12
Cn1nnc(-c2ccc3c(c2)[nH]c2ncnc(NCCCCN4CCCCC4)c23)n1
Cn1nnc(-c2ccc3c(c2)[nH]c2ncnc(NCCCN4CCCC4)c23)n1
CN(C)CCCN(C)c1ncnc2[nH]c3cc(-c4nnn(C)n4)ccc3c12
Cn1nnc(-c2ccc3c(c2)[nH]c2nc(Cc4ccccc4)nc(NCCCCCCCCCCN)c23)n1
COC(=O)c1cnc2c(c1)[nH]c1nc(Cc3ccc4ccccc4c3)nc(NCCCN3CCCCC3)c12
COC(=O)c1ccc2c(c1)[nH]c1cc(Cc3cccc(OC)c3)nc(NCCCCN3CCCC3)c12
COC(=O)c1ccc2c(c1)[nH]c1cc(Cc3cccc(O)c3)nc(NCCCCN3CCCC3)c12
COC(=O)c1ccc2c(c1)[nH]c1nc(Cc3ccccc3)nc(NCCCCCCCN)c12
COC(=O)c1ccc2c(c1)[nH]c1nc(Cc3ccsc3)nc(N[C@H]3CC[C@H](N)CC3)c12
Cn1nnc(-c2ccc3c(c2)[nH]c2ncnc(NCCCN4CCCCC4)c23)n1 [drawing 53]

pIC50, 5.30 to 5.70:
COC(=O)c1ccc2c(c1)[nH]c1nc(Cc3ccccc3)nc(Nc3cccc(CO)c3)c12
COC(=O)c1ccc2c(c1)[nH]c1ncnc(NCCN3CCCCC3)c12
COC(=O)c1ccc2c(c1)[nH]c1ncnc(NCCCN3CCCCC3C)c12 (stereo not shown)
COC(=O)c1ccc2c3c(N(C)CCCN4CCCCC4)ncnc3n(C)c2c1
CNCCCNc1ncnc2[nH]c3cc(C(=O)OC)ccc3c12
COC(=O)c1ccc2c(c1)[nH]c1ncnc(NCC#CCN3CCCCC3)c12
COC(=O)c1ccc2c(c1)[nH]c1ncnc(NCCCN(C)CCCN)c12
COC(=O)c1ccc2c(c1)[nH]c1nc(C)nc(NCCCN3CCCCC3)c12
COC(=O)c1ccc2c(c1)[nH]c1nc(CN(C)C)nc(NCCCN3CCCCC3)c12
COC(=O)c1ccc2c(c1)[nH]c1ncnc(NCCc3c[nH]c4ccccc34)c12
COC(=O)c1ccc2c(c1)[nH]c1ncnc(NCC(C)(C)CN)c12
Cc1nnc(-c2ccc3c(c2)[nH]c2ncnc(NCCCN4CCCCC4)c23)o1
CCn1nnc(-c2ccc3c(c2)[nH]c2ncnc(NCCCN4CCCCC4)c23)n1
Cc1nc(-c2ccc3c(c2)[nH]c2ncnc(NCCCN4CCCCC4)c23)no1
COC(=O)c1ccc2c(c1)[nH]c1nc(Cc3ccccc3)nc(Nc3cccc(NC(C)=O)c3)c12
COC(=O)c1ccc2c(c1)[nH]c1nc(CCc3ccccc3)nc(NCCCN3CCCCC3)c12
COC(=O)c1ccc2c(c1)[nH]c1nc(Cc3ccccc3)nc(Nc3cccc(N)c3)c12
COC(=O)c1ccc2c(c1)[nH]c1ncnc(N[C@H]3CC[C@@H](N)CC3)c12
c1csc(-c2ccc3c(c2)[nH]c2ncnc(NCCCN4CCCCC4)c23)c1
c1ccc(-c2ccc3c(c2)[nH]c2ncnc(NCCCN4CCCCC4)c23)cc1
COC(=O)c1ccc2c(c1)[nH]c1nc(Cc3ccncc3)nc(NCCCN3CCCCC3)c12
COC(=O)c1ccc2c(c1)[nH]c1ncnc(NC3CCC(N(C)C)CC3)c12 (stereo not shown)
COC(=O)c1ccc2c(c1)[nH]c1nc(Cc3cccc(F)c3)nc(NCCCN3CCCCC3)c12
COC(=O)c1ccc2c(c1)[nH]c1nc(Cc3cccc(OC)c3)nc(NCCCN3CCCCC3)c12
COC(=O)c1ccc2c(c1)[nH]c1nc(Cc3cccs3)nc(NCCCN3CCCCC3)c12
CCOC(=O)c1ccc2c(c1)[nH]c1nc(Cc3ccccc3)nc(NCCCN3CCCCC3)c12
COC(=O)c1ccc2c(c1)[nH]c1nc(Cc3ccccn3)nc(NCCCN3CCCCC3)c12
COC(=O)c1ccc2c(c1)[nH]c1nc(CC3CCCCC3)nc(NCCCN3CCCCC3)c12
COC(=O)c1cnc2c(c1)[nH]c1nc(C(C)c3ccccc3)nc(NCCCN3CCCCC3)c12 (stereo not shown)
COC(=O)c1ccc2c(c1)[nH]c1nc(C)nc(NCCCN(C)CCCN)c12
C#Cc1cccc(Cc2nc(NCCN(C)CCN)c3c(n2)[nH]c2cc(-c4nnn(C)n4)ccc23)c1
COC(=O)c1ccc2c(c1)[nH]c1nc(Cc3ccccc3)nc(NCCCN3CCOCC3)c12
Cn1nnc(-c2ccc3c(c2)[nH]c2ncnc(NCCCNC(=O)C(F)(F)F)c23)n1
COC(=O)c1ccc2c(c1)[nH]c1nc(Cc3ccccc3)nc(NCCNC(=O)C(F)F)c12
COC(=O)c1ccc2c(c1)[nH]c1cc(Cc3ccsc3)nc(NCCCN3CCCCC3)c12
COC(=O)c1ccc2c(c1)[nH]c1nc(Cc3cccnc3)nc(N3CCC(N4CCCC4)CC3)c12
COC(=O)c1ccc2c(c1)[nH]c1ncnc(NCCCN3CCCCC3)c12 [drawing 45]
COC(=O)c1ccc2[nH]c3nc(Cc4ccccc4)nc(NCCCN4CCCCC4)c3c2c1 [drawing 103]

pIC50, 6.00 to 6.30:
COC(=O)c1ccc2c(c1)[nH]c1nc(Cc3ccccc3)nc(NCCCN(C)CCOCCOCCO)c12
COC(=O)c1ccc2c(c1)[nH]c1nc(Cc3ccccc3)nc(NCCNC3=NCCC3)c12
CCCCCc1nc(NCCCN2CCCCC2)c2c(n1)[nH]c1cc(C(=O)OC)ccc12
COC(=O)c1ccc2c(c1)[nH]c1nc(Cc3ccc(Br)cc3)nc(NCCCN3CCCCC3)c12
Cn1nnc(-c2ccc3c(c2)[nH]c2nc(Cc4ccccc4)nc(NCCCN4CCCCC4)c23)n1
Cn1nnc(-c2ccc3c(c2)[nH]c2nc(Cc4ccccc4)nc(N[C@H]4CC[C@H](N(C)C)CC4)c23)n1
CN(C)CCNc1ncnc2[nH]c3cc(-c4nnn(C)n4)ccc3c12
Cn1nnc(-c2ccc3c(c2)[nH]c2ncnc(N[C@H]4CC[C@H](N(C)C)CC4)c23)n1
COC(=O)c1cnc2c(c1)[nH]c1nc(Cc3ccc4ccccc4c3)nc(N3CCC(N4CCCC4)CC3)c12
CNCCNc1nc(Cc2ccccc2)nc2[nH]c3cc(C(=O)OC)ccc3c12
COC(=O)c1ccc2c(c1)[nH]c1nc(Cc3ccccc3)nc(NCCCCCN(C)C)c12
COC(=O)c1ccc2c(c1)[nH]c1nc(Cc3ccccc3)nc(NCCCCCCN(C)C)c12

pIC50, > 6.30:
COC(=O)c1ccc2c(c1)[nH]c1ncnc(NCc3ccccc3CN(C)C)c12
COC(=O)c1ccc2c(c1)[nH]c1nc(Cc3ccccc3)nc(NCCCN(C)CCCNC(=N)N)c12
COC(=O)c1cnc2c(c1)Cc1nc(Cc3ccccc3)nc(NCCCN(C)CCCNc3nc(Cc4ccccc4)nc4[nH]c5cc(C(=O)OC)cnc5c34)c1-2

Tested on: not listed separately
Test: PK assays in mice, intravenous and oral
Conditions: orally administered at 20 mg/kg
Method: PK assays were performed in mice (n=3). […] The following pharmacokinetic parameters were calculated.
The compounds were orally administered at 20 mg/kg and plasma samples were collected at 15, 30 minutes and 1, 2, 4, 6 and 8 hours after administration. The following pharmacokinetic parameters were calculated.

Area under the curve (AUC), 1.2 µM·h:
COC(=O)c1ccc2c(c1)[nH]c1ncnc(NCCCN3CCCCC3)c12 [UM729]

Bioavailability (% F), 19%:
COC(=O)c1ccc2c(c1)[nH]c1ncnc(NCCCN3CCCCC3)c12 [UM729]

Maximal time (tmax), 48 min:
COC(=O)c1ccc2c(c1)[nH]c1ncnc(NCCCN3CCCCC3)c12 [UM729]

Same assay, conditions: read-out: maximal concentration (Cmax), orally administered at 20 mg/kg

Cmax, 200 nM:
COC(=O)c1ccc2c(c1)[nH]c1ncnc(NCCCN3CCCCC3)c12 [UM729]

Biological target: T1, RCOR1, LSD1, HDAC2 in OCI-AML1 cells (Homo sapiens, UniProt O60341+Q92769+Q9UKL0)
T1 construct: nucleoplasmic proteins extracted from shLuc or shKBTBD4- transduced OCI-AML1 cells; endogenous in cells; host or cells: OCI-AML1 cells transduced with shLuc or shKBTBD4
Test: Western Blot of CoREST members
Type: cell-based
Conditions: OCI-AML1, UM171 250 nM plus MG132 10 μM or MLN2494 100 nM
Method: Representative blots (upper panel) showing KBTBD4, RCOR1, LSD1, HDAC2 and Nucleolin (NCL, loading control) protein levels. Quantification of RCOR1 protein levels were evaluated in 3 independent experiments (lower panel).
Representative blots (upper panel) showing CUL3, RCOR1 and TUBA (loading control) protein levels. Quantification of RCOR1 protein levels were evaluated in 2 independent experiments (lower panel).
Total protein extraction was performed in lysis buffer (25 mM tris ph7.5, 150 mM NaCl, 1% NP-40, protease inhibitors).

UM171-induced loss of RCOR1 under co-treatment, normal:
NS(=O)(=O)OC[C@@H]1C[C@@H](n2ccc3c(N[C@H]4CCc5ccccc54)ncnc32)C[C@@H]1O [MLN2494]
